Reference: patent publication US9512121B2, “[1,2,4] triazol [4,3-A] pyridine derivative, preparation method therefor or medical application thereof” (Jiangsu Hansoh Pharmaceutical Co., Ltd., priority 2013, dated 2016)

Tests used:
[1] = test system: hepatocellular carcinoma cell lines HCCLM3, MHCC97-H, MHCC97-L, and stomach cancer cell lines SNU5, MKN-45; test: Growth inhibition of cancer cell lines (CellTiter-Glo, 72 hours); conditions: read-out: Half inhibitory concentration (IC50), cell activity
Method: The purpose is to measure the growth inhibition effect of the compound on hepatocellular carcinoma cell lines HCCLM3, MHCC97-H, MHCC97-L, and stomach cancer cell lines SNU5, MKN-45.
The positive control and the test compounds were firstly dissolved in 100% dimethyl sulfoxide to prepare a 20 mM stock solution, which was stored at −20° C. in a refrigerator. Before the experiment, the above stock solution was diluted with culture medium containing 0.6% dimethyl sulfoxide to prepare a 20× fold solution for each test concentration.
(1) To each well of 96-well plate was added 100 μl culture medium containing 2000 cells (HCCLM3/MHCC97-H/MHCC97-L was cultured in DMEM plus 10% FBS; SNU5 was cultured in IMDM plus 10% FBS; and MKN45 was cultured in RPMI1640 plus 10% GFBS). The plate was incubated in a 5% CO2 incubator overnight.
(2) 20 μl diluted positive control or test compounds were added to each well, with two duplicate wells for each dilution. To the blank well and the control well were each added 20 μl culture medium containing 0.6% dimethyl sulfoxide. […]
(5) BioTek microplate reader was used to measure the luminescence signal of each well.
(6) Using GraphPad software, a non-linear regression curve was generated based on the inhibition ratio as a function of the concentration of the compounds. The IC50 was calculated using a S-shaped dose-effect curve fitting.

[2] = target: c-MET tyrosine kinase (Homo sapiens (Human), UniProt P08581); test: c-MET tyrosine kinase enzyme activity (inhibition of phosphorylation, fluorescence); conditions: read-out: Half inhibitory concentration (IC50) on the receptor tyrosine kinase c-MET, enzyme activity
Sequence of c-MET tyrosine kinase (P08581 25-1390): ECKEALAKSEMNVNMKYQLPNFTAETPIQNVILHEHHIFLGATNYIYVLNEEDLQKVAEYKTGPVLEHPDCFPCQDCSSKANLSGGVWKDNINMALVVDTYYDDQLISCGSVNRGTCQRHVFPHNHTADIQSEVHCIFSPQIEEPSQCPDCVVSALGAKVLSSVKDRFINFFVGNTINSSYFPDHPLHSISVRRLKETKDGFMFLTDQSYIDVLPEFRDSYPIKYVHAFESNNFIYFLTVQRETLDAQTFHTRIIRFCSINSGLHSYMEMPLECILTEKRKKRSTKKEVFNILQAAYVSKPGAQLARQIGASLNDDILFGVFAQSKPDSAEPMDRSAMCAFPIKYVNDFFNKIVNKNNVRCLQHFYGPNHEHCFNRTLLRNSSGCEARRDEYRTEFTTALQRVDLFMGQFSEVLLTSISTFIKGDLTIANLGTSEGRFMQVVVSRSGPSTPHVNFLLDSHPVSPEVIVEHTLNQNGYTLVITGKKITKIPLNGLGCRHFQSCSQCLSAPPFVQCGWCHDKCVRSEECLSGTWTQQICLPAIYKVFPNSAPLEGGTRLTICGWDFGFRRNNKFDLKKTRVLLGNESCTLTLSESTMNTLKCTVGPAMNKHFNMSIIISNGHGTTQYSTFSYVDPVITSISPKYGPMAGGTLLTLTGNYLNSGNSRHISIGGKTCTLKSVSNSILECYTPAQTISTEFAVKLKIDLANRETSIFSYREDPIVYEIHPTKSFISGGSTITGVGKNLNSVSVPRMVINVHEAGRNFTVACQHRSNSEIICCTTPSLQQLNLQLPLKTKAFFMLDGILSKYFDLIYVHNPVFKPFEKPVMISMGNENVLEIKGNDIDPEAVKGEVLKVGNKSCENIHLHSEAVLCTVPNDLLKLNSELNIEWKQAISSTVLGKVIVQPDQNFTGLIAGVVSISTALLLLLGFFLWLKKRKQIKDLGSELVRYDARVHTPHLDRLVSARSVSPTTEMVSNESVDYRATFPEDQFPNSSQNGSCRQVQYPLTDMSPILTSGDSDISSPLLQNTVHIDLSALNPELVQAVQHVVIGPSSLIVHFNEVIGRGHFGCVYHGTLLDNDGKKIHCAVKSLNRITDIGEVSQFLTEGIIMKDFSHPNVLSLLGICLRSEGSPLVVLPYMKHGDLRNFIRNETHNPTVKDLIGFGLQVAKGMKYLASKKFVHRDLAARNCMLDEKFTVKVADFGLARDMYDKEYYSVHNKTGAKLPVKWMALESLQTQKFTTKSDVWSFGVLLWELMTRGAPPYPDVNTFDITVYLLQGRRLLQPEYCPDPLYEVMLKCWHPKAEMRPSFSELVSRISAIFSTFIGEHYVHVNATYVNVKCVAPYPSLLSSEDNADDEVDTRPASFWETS

[3] = Pharmacokinetic test in rats after intragastric administration (LC/MS/MS of plasma); assay type: in vivo, Sprague-Dawley (SD) rats; conditions: SD rats, protocol 10.0 mg/kg; for Vd/F / AUC / CL/F / half-life / MRT / Cmax: both sexes, Sprague-Dawley, rat, plasma, po; for Vd/F: read-out: Apparent Distribution Volume Vz/F; for AUC: read-out: Area Under Curve AUC; for CL/F: read-out: Clearance CL/F; for half-life: read-out: Half life t1/2 (converted); for MRT: read-out: Mean Residence Time MRT; for Cmax: read-out: Plasma Conc. Cmax
Method: Rats were used as test animals. A LC/MS/MS method was used to determine drug concentration in plasma at different time points after the rats were administered the compounds of Examples 3, 22 and 28 intragastrically. The pharmacokinetic behavior of the compounds of the present invention was studied and evaluated in rats.
Eight healthy adult Sprague-Dawley (SD) rats, half male and half female, were divided into 2 groups with 4 rats in each group. The animals were purchased from SINO-BRITISH SIPPR/BK LAB. ANIMAL LTD., CO, Certificate No.: SCXK (Shanghai) 2008-0016.
A certain amount of test compounds was weighed. 1.0 mL of dimethyl sulfoxide was added to dissolve the compounds. Normal saline was added to prepare a 1.0 mg/mL solution. The concentration of DMSO was kept at 5%. […]
Compounds of Example 3, 22 and 28 were administered intragastrically to rats. Blood samples (0.1 mL) were taken from the orbital sinus before the administration, and at 0.5, 1.0, 2.0, 3.0, 4.0, 6.0, 8.0, 12.0, 24.0, and 36.0 hours after administration. The blood sample was placed in a heparinized tube, and then centrifuged for 10 minutes at 4° C., at 10000 rpm to separate blood plasma. The plasma samples were stored at −20° C. The rats were fed 2 hours after compound administration.
Content determination of the test compounds in rat plasma after intragastrically administering at different concentrations: 50 μL of rat plasma taken at various time points after administration were mixed with 50 μL of internal standard solution and 100 μL of methanol, and mixed for 3 minutes by a vortexer. The mixture was centrifuged for 10 minutes at 13,500 rpm. 10 μL of the supernatant were taken from the plasma sample and analyzed by LC-MS/MS.

[4] = cited from earlier work

Compound	IC50 [1]	IC50 [2]	Vd/F [3]	AUC [3]	CL/F [3]	half-life [3]	MRT [3]	Cmax [3]	outcome of clinical trials (toxicity) [4]	further results
CN1C(=O)COc2c1cnc1ccc(Sc3nnc4c(OC(F)F)cc(-c5cnn(C)c5)cn34)cc21 [Example 13, 9-((8-(difluoromethoxy)-6-(1-methyl-1H-pyrazol-4-yl)-[1,2,4]triazolo[4,3-a]pyridin-3-yl)thio)-4-methyl-2H-[1,4]oxazino[3,2-c]quinolin-3(4H)-one]	> 1000 nM	> 1000 nM								
Cn1cc(-c2cc(F)c3nnc(Sc4ccc5ncc6c(c5c4)OCCO6)n3c2)cn1 [Example 3, 9-((8-fluoro-6-(1-methyl-1H-pyrazol-4-yl)-[1,2,4]triazolo[4,3-a]pyridin-3-yl)thio)-2,3-dihydro-[1,4]dioxino[2,3-c]quinoline]			0.667 ± 0.087 L/kg	79300 ± 40700 ng·h/mL	1.33 ± 0.76 mL/min/kg	7.54 ± 4.56 h	11.6 ± 5.8 h	5000 ± 957 ng/mL		
Cn1cc(-c2ccc3nnc(Sc4ccc5ncc(N6CCOCC6)c(F)c5c4)n3c2)cn1 [Example 28, 4-(4-fluoro-6-((6-(1-methyl-1H-pyrazol-4-yl)-[1,2,4]triazolo[4,3-a]pyridin-3-yl)thio)quinolin-3-yl)morpholine]			1.13 ± 0.79 L/kg	30900 ± 25500 ng·h/mL	4.06 ± 2.4 mL/min/kg	3.13 ± 0.54 h	5.17 ± 0.95 h	3600 ± 1820 ng/mL		
Cn1cc(-c2ccc3nnc(C(F)(F)c4ccc5ncccc5c4)n3n2)cn1 [JNJ-38877605, reference compound]									discontinued in clinical trials due to renal toxicity	Apparent Distribution Volume Vz/F [3]: 1.48 ± 0.613 L/kg; Area Under Curve AUC [3]: 17325 ± 9505 ng·h/mL; Clearance CL/F [3]: 5.81 ± 2.54 mL/min/kg; Half life t1/2 [3]: 2.97 ± 0.25 h; Mean Residence Time MRT [3]: 4.90 ± 0.62 h; Plasma Conc. Cmax [3]: 2373 ± 1444 ng/mL
CN1C(=O)COc2c1cnc1ccc(Sc3nnc4c(F)cc(-c5cnn(C)c5)cn34)cc21 [Example 22, 9-((8-fluoro-6-(1-methyl-1H-pyrazol-4-yl)-[1,2,4]triazolo[4,3-a]pyridin-3-yl)thio)-4-methyl-2H-[1,4]oxazino[3,2-c]quinolin-3(4H)-one]	2 nM	2.9 nM	0.327 ± 0.037 L/kg	122000 ± 13900 ng·h/mL	0.686 ± 0.071 mL/min/kg	5.55 ± 0.78 h	9.1 ± 0.85 h	8630 ± 592 ng/mL		
Cn1cc(-c2ccc3nnc(Sc4ccc5ncccc5c4)n3n2)cn1 [SNG-523]									discontinued in clinical trials due to renal toxicity	
